The values that follow come from ChEMBL document CHEMBL5528012, “Discovery of novel deoxyvasicinone derivatives with benzenesulfonamide substituents as multifunctional agents against Alzheimer's disease” (Eur J Med Chem, 2024).

The nature of data set [1]: in vitro. The note with it: PAMPA, pH 7.4. A general note: PAMPA measures passive passage across an artificial lipid membrane.
Description: Permeability of the compound at 30 to 50 uM at pH 7.4 by PAMPA-BBB assay
The target of data set [2] is Cholinesterase (Equus caballus, UniProt P81908). As to the kind of experiment: Inhibition of equine serum BuChE using S-butyrylthiocholine iodide as substrate pre-incubated for 30 mins followed by substrate addition and measured after 5 mins by DTNB reagent based Ellman's method. A general note: DTNB colorimetry detects thiols as they appear.
Cholinesterase, sequence (P81908 whole entry): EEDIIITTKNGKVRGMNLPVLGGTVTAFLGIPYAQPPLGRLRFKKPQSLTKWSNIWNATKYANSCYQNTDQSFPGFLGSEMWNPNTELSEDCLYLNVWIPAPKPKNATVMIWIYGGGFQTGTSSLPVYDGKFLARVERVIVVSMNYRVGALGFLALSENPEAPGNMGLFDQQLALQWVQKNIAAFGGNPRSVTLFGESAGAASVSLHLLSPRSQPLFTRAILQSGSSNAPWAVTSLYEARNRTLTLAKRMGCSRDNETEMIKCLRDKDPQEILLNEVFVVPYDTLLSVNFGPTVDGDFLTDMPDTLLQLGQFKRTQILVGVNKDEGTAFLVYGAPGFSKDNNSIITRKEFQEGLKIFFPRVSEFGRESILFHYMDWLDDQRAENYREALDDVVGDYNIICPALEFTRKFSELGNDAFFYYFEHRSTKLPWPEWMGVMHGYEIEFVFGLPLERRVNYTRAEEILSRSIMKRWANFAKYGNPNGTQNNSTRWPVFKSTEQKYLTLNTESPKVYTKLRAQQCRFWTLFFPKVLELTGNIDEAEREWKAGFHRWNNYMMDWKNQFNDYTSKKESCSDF
Data set [3] addresses Acetylcholinesterase (Electrophorus electricus, UniProt O42275). As to the kind of experiment: Inhibition of electric eel AChE using acetylthiocholine iodide as substrate pre-incubated for 30 mins followed by substrate addition and measured after 5 mins by DTNB reagent based Ellman's method.
The target of data set [4] is Acetylcholinesterase (Homo sapiens, UniProt P22303). As to the kind of experiment: Inhibition of AChE (unknown origin).
Acetylcholinesterase (Homo sapiens, UniProt P22303), sequence (P22303 whole entry): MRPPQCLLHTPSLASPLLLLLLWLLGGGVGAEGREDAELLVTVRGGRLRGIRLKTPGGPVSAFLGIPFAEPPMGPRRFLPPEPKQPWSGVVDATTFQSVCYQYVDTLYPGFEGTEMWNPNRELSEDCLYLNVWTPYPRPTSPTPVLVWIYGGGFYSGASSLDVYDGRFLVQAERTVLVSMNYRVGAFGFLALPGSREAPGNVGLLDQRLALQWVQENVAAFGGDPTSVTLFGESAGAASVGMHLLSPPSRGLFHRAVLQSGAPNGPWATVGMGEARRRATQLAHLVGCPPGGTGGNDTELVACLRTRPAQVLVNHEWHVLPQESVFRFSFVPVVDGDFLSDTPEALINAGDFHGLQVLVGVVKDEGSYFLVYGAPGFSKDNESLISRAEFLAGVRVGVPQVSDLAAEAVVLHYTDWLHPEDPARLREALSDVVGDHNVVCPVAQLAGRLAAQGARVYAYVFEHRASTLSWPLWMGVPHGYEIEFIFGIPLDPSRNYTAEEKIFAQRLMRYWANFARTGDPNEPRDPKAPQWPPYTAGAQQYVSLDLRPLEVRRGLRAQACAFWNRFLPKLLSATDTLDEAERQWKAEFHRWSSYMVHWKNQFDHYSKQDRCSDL

The structures appear in SMILES notation.

Acetylcholinesterase (Electrophorus electricus, UniProt O42275), sequence (O42275 whole entry): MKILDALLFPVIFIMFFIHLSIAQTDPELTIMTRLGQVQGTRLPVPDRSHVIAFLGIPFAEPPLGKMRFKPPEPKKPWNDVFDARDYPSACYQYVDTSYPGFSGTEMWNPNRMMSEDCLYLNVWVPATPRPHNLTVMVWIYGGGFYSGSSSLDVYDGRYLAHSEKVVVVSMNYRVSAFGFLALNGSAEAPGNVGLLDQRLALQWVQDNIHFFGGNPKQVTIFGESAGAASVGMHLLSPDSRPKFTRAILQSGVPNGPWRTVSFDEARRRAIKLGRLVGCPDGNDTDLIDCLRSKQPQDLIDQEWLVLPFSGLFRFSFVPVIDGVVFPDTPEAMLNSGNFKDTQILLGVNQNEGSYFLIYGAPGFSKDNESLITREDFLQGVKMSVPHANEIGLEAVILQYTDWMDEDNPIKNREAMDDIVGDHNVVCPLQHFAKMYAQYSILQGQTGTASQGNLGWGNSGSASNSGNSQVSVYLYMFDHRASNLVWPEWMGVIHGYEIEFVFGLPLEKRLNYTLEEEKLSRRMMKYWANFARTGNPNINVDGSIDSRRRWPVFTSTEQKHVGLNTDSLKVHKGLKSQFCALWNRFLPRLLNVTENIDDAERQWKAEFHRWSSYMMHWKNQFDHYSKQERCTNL

One may read the Papp as a coefficient for how fast a substance crosses the barrier. Low values mean slow passage, high ones fast passage. `CNC(=C[N+](=O)[O-])NCCSCc1ccc(CN(C)C)o1` [RANITIDINE] yielded a Papp at 50 µM in data set [1] of 0.06 ×10⁻⁶ cm/s.

Usually IC50 stands for the concentration needed to halve the response being measured. Low readings indicate greater potency, high ones weaker potency. With `COc1ccc(S(=O)(=O)NCC(=O)Nc2ccc3c(=O)n4c(nc3c2)CCC4)cc1OC`, the IC50 in data set [2] is more than 50 µM; in data set [3], 10.4 µM.

Consider `COc1ccc2[nH]c(C(=O)Nc3ccc4nc5n(c(=O)c4c3)CCC5)cc2c1`, for which the half-inhibitory concentration (IC50) in data set [4] is 0.12 µM. Take `O=C(CNS(=O)(=O)c1ccccc1)Nc1ccc2c(=O)n3c(nc2c1)CCC3`: the IC50 in data set [2] was 48.5 µM; in data set [3], 5.39 µM. Take `O=C(CNS(=O)(=O)c1ccc(OC(F)(F)F)cc1)Nc1ccc2c(=O)n3c(nc2c1)CCC3`: the IC50 in data set [2] and in data set [3] was more than 50 µM throughout. For `O=C(CNS(=O)(=O)c1c(F)cccc1F)Nc1ccc2c(=O)n3c(nc2c1)CCC3`, the concentration for half-maximal inhibition (IC50) was more than 50 µM in data set [2] and 5.12 µM in data set [3]. `O=C(CNS(=O)(=O)c1cc(Cl)cc(Cl)c1)Nc1ccc2c(=O)n3c(nc2c1)CCC3`: the concentration for half-maximal inhibition (IC50) in data set [2] and in data set [3] was more than 50 µM in each case. For the molecule `O=C(CNS(=O)(=O)c1ccc(F)cc1)Nc1ccc2c(=O)n3c(nc2c1)CCC3`, the IC50 in data set [2] is more than 50 µM; in data set [3] it was 5.68 µM. As for `O=C(CNS(=O)(=O)c1c(Cl)cccc1Cl)Nc1ccc2c(=O)n3c(nc2c1)CCC3`, the results for the IC50 in data set [2] and in data set [3] were 47.7 µM and 4.06 µM, respectively. Take `O=C(CNS(=O)(=O)c1ccccc1Cl)Nc1ccc2c(=O)n3c(nc2c1)CCC3`: the IC50 was more than 50 µM in data set [2] and 2.57 µM in data set [3].

Regarding `CC(C)c1ccc(S(=O)(=O)NCC(=O)Nc2ccc3c(=O)n4c(nc3c2)CCC4)cc1`, the IC50 was more than 50 µM in data set [2] and 12.5 µM in data set [3]. The matching figures for `O=C(CNS(=O)(=O)c1cccc(C(F)(F)F)c1)Nc1ccc2c(=O)n3c(nc2c1)CCC3`: more than 50 µM and 20.9 µM. For `O=C(CNS(=O)(=O)c1cccc(Cl)c1)Nc1ccc2c(=O)n3c(nc2c1)CCC3` the same measures were more than 50 µM and 3.98 µM. As for `O=C(CNS(=O)(=O)c1ccc(Cl)cc1)Nc1ccc2c(=O)n3c(nc2c1)CCC3`, the 50% inhibitory concentration (IC50) was more than 50 µM in data set [2] and 48.3 µM in data set [3]. The matching figures for `CC(C)c1cc(C(C)C)c(S(=O)(=O)NCC(=O)Nc2ccc3c(=O)n4c(nc3c2)CCC4)c(C(C)C)c1`: more than 50 µM and more than 50 µM.

`O=C(CNS(=O)(=O)c1cccc(Br)c1)Nc1ccc2c(=O)n3c(nc2c1)CCC3`: the 50% inhibitory concentration (IC50) in data set [2] was more than 50 µM; in data set [3], 7.88 µM. For `O=C(CNS(=O)(=O)c1ccc(F)c(Cl)c1)Nc1ccc2c(=O)n3c(nc2c1)CCC3` the same measures were more than 50 µM and 8.08 µM. The matching figures for `COc1ccc(S(=O)(=O)NCC(=O)Nc2ccc3c(=O)n4c(nc3c2)CCC4)cc1`: 32.9 µM and 5.58 µM. On to `O=C(CCCCN1CCN(Cc2ccccc2)CC1)Nc1ccc2nc3n(c(=O)c2c1)CCC3`, for which the IC50 in data set [4] is 0.00329 µM. As to `O=C(CNS(=O)(=O)c1ccccc1Br)Nc1ccc2c(=O)n3c(nc2c1)CCC3`, the figures for the 50% inhibitory concentration (IC50) in data set [2] and in data set [3] were more than 50 µM and 4.17 µM, respectively. Take `O=C(CNS(=O)(=O)c1ccccc1F)Nc1ccc2c(=O)n3c(nc2c1)CCC3`: the half-maximal inhibitory concentration (IC50) in data set [2] was more than 50 µM; in data set [3], 5.25 µM. For the molecule `O=C(CNS(=O)(=O)c1ccc(Br)cc1)Nc1ccc2c(=O)n3c(nc2c1)CCC3`, the IC50 in data set [2] and in data set [3] was more than 50 µM each time. `CCc1ccc(S(=O)(=O)NCC(=O)Nc2ccc3c(=O)n4c(nc3c2)CCC4)cc1`: the 50% inhibitory concentration (IC50) was more than 50 µM in data set [2] and 31.7 µM in data set [3]. Take `COc1ccc(Br)cc1S(=O)(=O)NCC(=O)Nc1ccc2c(=O)n3c(nc2c1)CCC3`: the IC50 in data set [2] was more than 50 µM; in data set [3] it was 5.22 µM. Consider `COc1ccc(S(=O)(=O)NCC(=O)Nc2ccc3c(=O)n4c(nc3c2)CCC4)c(OC)c1`, for which the concentration for half-maximal inhibition (IC50) was more than 50 µM in data set [2] and 9.19 µM in data set [3].

In the case of `NS(=O)(=O)c1cc2c(cc1Cl)N=CNS2(=O)=O` [CHLOROTHIAZIDE], the apparent permeability coefficient (Papp) at 50 µM in data set [1] was 1.36 ×10⁻⁶ cm/s. `O=C(CNS(=O)(=O)c1cc(Br)cc(C(F)(F)F)c1)Nc1ccc2c(=O)n3c(nc2c1)CCC3`: the half-maximal inhibitory concentration (IC50) in data set [2] and in data set [3] was more than 50 µM each time.

As to `O=C(CNS(=O)(=O)c1ccc(C(F)(F)F)cc1)Nc1ccc2c(=O)n3c(nc2c1)CCC3`, the IC50 in data set [2] was more than 50 µM; in data set [3] it was 24.8 µM.

As for `O=C(CNS(=O)(=O)c1ccccc1OC(F)(F)F)Nc1ccc2c(=O)n3c(nc2c1)CCC3`, the results for the IC50 in data set [2] and in data set [3] were more than 50 µM and 0.78 µM, respectively. The matching figures for `Cc1ccc(S(=O)(=O)NCC(=O)Nc2ccc3c(=O)n4c(nc3c2)CCC4)cc1`: more than 50 µM and 17.6 µM. The matching figures for `O=C(CNS(=O)(=O)c1cccc(OC(F)(F)F)c1)Nc1ccc2c(=O)n3c(nc2c1)CCC3`: more than 50 µM and more than 50 µM. `CC(C)(C)c1ccc(S(=O)(=O)NCC(=O)Nc2ccc3c(=O)n4c(nc3c2)CCC4)cc1`: the 50% inhibitory concentration (IC50) in data set [2] and in data set [3] was more than 50 µM each time. Regarding `CCCc1ccc(S(=O)(=O)NCC(=O)Nc2ccc3c(=O)n4c(nc3c2)CCC4)cc1`, the 50% inhibitory concentration (IC50) in data set [2] and in data set [3] was more than 50 µM in each case. Consider `O=C(CNS(=O)(=O)c1cccc(F)c1)Nc1ccc2c(=O)n3c(nc2c1)CCC3`, for which the half-inhibitory concentration (IC50) in data set [2] is more than 50 µM; in data set [3] it was 4.43 µM. `O=C(CNS(=O)(=O)c1cc(Cl)c(F)cc1F)Nc1ccc2c(=O)n3c(nc2c1)CCC3`: the IC50 in data set [2] and in data set [3] was more than 50 µM throughout.
